Values joined by “and” are separate entries in the source; they are usually repeats but may differ in a detail not shown here. Equal entries are not always repeated.
Tested on: C. elegans
Conditions: Table S2, C. elegans SS assay, 110 μM, averages of 4 data points

SMILES	Percentage of motility inhibition 0 h	Percentage of motility inhibition 24 h [%]
COc1cc(/C=C/C(=O)OC[C@H]2O[C@@H](O[C@@H]3[C@@H](O)[C@H](O)[C@@H](CO)O[C@H]3c3c(OC)cc4oc(-c5ccc(O)cc5)cc(=O)c4c3O)[C@H](O)[C@@H](O)[C@@H]2O)ccc1O [6‴‐Feruloylspinosin]	9%	13
COc1cc(O)c2c(=O)cc(-c3ccc(OC)c(OC)c3)oc2c1 [7,3',4'‐Tri‐O‐methylluteolin]	13%	21
O=c1cc(-c2ccc(O)cc2)oc2cc(O)ccc12 [7,4'‐Dihydroxyflavone]	5%	0
COc1ccc(-c2cc(=O)c3c(O)cc(OC)cc3o2)cc1 [7,4'‐Di‐O‐methylapigenin]	0%	9
CC(=O)O[C@@]12CO[C@@H]1C[C@@H](O)[C@@]1(C)C(=O)[C@H](O)C3=C(C)[C@@H](OC(=O)[C@H](O)[C@@H](NC(=O)c4ccccc4)c4ccccc4)C[C@@](O)([C@@H](OC(=O)c4ccccc4)[C@H]21)C3(C)C [7-Epi 10-desacetyl paclitaxel]	0%	26
CC(C)CCC[C@@H](C)[C@H]1CC[C@H]2[C@@H]3C(=O)C=C4C[C@@H](O)CC[C@]4(C)[C@H]3CC[C@]12C [7-Ketocholesterol]	1%	27
CO[C@H]1c2cc(C(C)C)c(O)c(O)c2[C@@]23CCCC(C)(C)[C@@H]2[C@@H]1OC3=O [7-Methoxyrosmanol]	12%	18
CC(=O)O[C@H]1C(=O)[C@@]2(C)[C@H]([C@H](OC(=O)c3ccccc3)[C@]3(O)C[C@H](OC(=O)[C@H](O)[C@@H](NC(=O)c4ccccc4)c4ccccc4)C(C)=C1C3(C)C)[C@]1(OC(C)=O)CO[C@@H]1C[C@@H]2O [7-epi-Taxol]	13%	11
C=C1[C@H](O)C[C@H]2[C@@H](/C=C(\C)C(=O)[C@@]3(O)C[C@H](C)[C@H](O)[C@@H]3[C@H]1O)C2(C)C [7beta-Hydroxylathyrol]	6%	14
CC(=O)OCC1=C(C(=O)O)N2C(=O)[C@@H](N)[C@H]2SC1 [7‐Aminocephalosporanic acid]	3%	0
CCc1c2c(nc3ccccc13)-c1cc3c(c(=O)n1C2)COC(=O)[C@]3(O)CC [7‐Ethylcamptothecin]	11%	22
O=c1ccoc2cc(O)ccc12 [7‐Hydroxy‐4H‐chromen‐4‐one]	0%	8
Cn1c[n+]([C@@H]2O[C@H](CO)[C@@H](O)[C@H]2O)c2nc(N)[nH]c(=O)c21 [7‐Methylguanosine]	0%	0
C[C@@H]1CC[C@@H]2C(C(=O)O)=CO[C@@H](O[C@@H]3O[C@H](CO)[C@@H](O)[C@H](O)[C@H]3O)[C@H]12 [8-Epideoxyloganic acid]	2%	17
C[C@H]1[C@H]2[C@H](O[C@@H]3O[C@H](CO)[C@@H](O)[C@H](O)[C@H]3O)OC=C(C(=O)O)[C@H]2C[C@@H]1O [8-Epiloganic acid]	4%	15
CC(=O)O[C@@]1(C)C[C@@H](O)[C@]2(O)C=CO[C@@H](O[C@@H]3O[C@H](CO)[C@@H](O)[C@H](O)[C@H]3O)[C@@H]21 [8-O-Acetylharpagide]	10%	29
O=c1c2c3c(ccc2cc2n1CCc1cc4c(cc1-2)OCO4)OCO3 [8‐Oxocoptisine]	2%	30
CC(=O)OC1CC2(O)C(OC(=O)c3ccccc3)C3C4(OC(C)=O)COC4CC(O)C3(C)C(O)C(OC(C)=O)C(=C1C)C2(C)C (centres unmarked) [9-Dihydro-13-acetylbaccatin III]	0%	8
CC[C@@]1(O)C(=O)OCc2c1cc1n(c2=O)Cc2cc3c(OC)cccc3nc2-1 [9‐Methoxycamptothecin]	22%	0
COc1ccc2c3ccnc4ccc(=O)n(c2c1)c43 [9‐Methoxycanthin‐6‐one]	0%	22

SMILES	Percentage of motility inhibition 0 h	Percentage of motility inhibition 24 h [%]
CC(=O)O[C@@]12CO[C@@H]1C[C@H](O[C@@H]1OC[C@@H](O)[C@H](O)[C@H]1O)[C@@]1(C)C(=O)[C@H](O)C3=C(C)[C@@H](OC(=O)[C@H](O)[C@@H](NC(=O)c4ccccc4)c4ccccc4)C[C@@](O)([C@@H](OC(=O)c4ccccc4)[C@H]21)C3(C)C [10-Deacetyl-7-xylosyl paclitaxel]	0%	14
CC(=O)O[C@@]12CO[C@@H]1C[C@H](O)[C@@]1(C)C(=O)[C@H](O)C3=C(C)[C@@H](O)C[C@@](O)([C@@H](OC(=O)c4ccccc4)[C@H]21)C3(C)C [10-Deacetylbaccatin III]	4%	5
CC(=O)O[C@@]12CO[C@@H]1C[C@H](O)[C@@]1(C)C(=O)[C@H](O)C3=C(C)[C@@H](OC(=O)[C@H](O)[C@@H](NC(=O)c4ccccc4)c4ccccc4)C[C@@](O)([C@@H](OC(=O)c4ccccc4)[C@H]21)C3(C)C [10-Deacetyltaxol]	17%	0
C=CCCCCCCCCC(=O)O [10-Undecenoic acid]	0%	6
CC[C@@]1(O)C(=O)OCc2c1cc1n(c2=O)Cc2cc3cc(OC)ccc3nc2-1 [10‐Methoxycamptothecin]	0%	0
C=CCCCCCCCCC(=O)[O-].C=CCCCCCCCCC(=O)[O-].[Zn+2] [10‐Undecenoic acid (zinc salt)]	43%	35
C[C@H](CC[C@@H](O[C@@H]1O[C@H](CO[C@@H]2O[C@H](CO)[C@@H](O)[C@H](O)[C@H]2O)[C@@H](O)[C@H](O)[C@H]1O[C@@H]1O[C@H](CO)[C@@H](O)[C@H](O)[C@H]1O)C(C)(C)O)[C@H]1CC[C@@]2(C)[C@@H]3CC=C4[C@@H](CC[C@H](O[C@@H]5O[C@H](CO[C@@H]6O[C@H](CO)[C@@H](O)[C@H](O)[C@H]6O)[C@@H](O)[C@H](O)[C@H]5O)C4(C)C)[C@]3(C)CC[C@]12C [11-Deoxymogroside V]	0%	10
C[C@H]1[C@H](C)CC[C@]2(C)CC[C@]3(C)C(=CC(=O)[C@@H]4[C@@]5(C)CC[C@@H](O)[C@](C)(C(=O)O)[C@@H]5CC[C@]43C)[C@H]12 [11-Keto-beta-boswellic acid]	2%	0
C[C@H](CC[C@@H](O[C@@H]1O[C@H](CO)[C@@H](O)[C@H](O)[C@H]1O[C@H]1O[C@@H](CO)[C@H](O)[C@@H](O)[C@@H]1O)C(C)(C)O)C1CC[C@@]2(C)C3CC=C4C(CC[C@H](O)C4(C)C)[C@]3(C)C(=O)C[C@]12C (some centres unmarked) [11-Oxomogroside IIa]	0%	0
C[C@H](CC[C@@H](O[C@@H]1O[C@H](CO[C@@H]2O[C@H](CO)[C@@H](O)[C@H](O)[C@H]2O)[C@@H](O)[C@H](O)[C@H]1O[C@@H]1O[C@H](CO)[C@@H](O)[C@H](O)[C@H]1O)C(C)(C)O)[C@H]1CC[C@@]2(C)[C@@H]3CC=C4[C@@H](CC[C@H](O[C@@H]5O[C@H](CO[C@@H]6O[C@H](CO)[C@@H](O)[C@H](O)[C@H]6O)[C@@H](O)[C@H](O)[C@H]5O)C4(C)C)[C@]3(C)C(=O)C[C@]12C [11-oxo-mogroside V]	3%	24
COc1c(C(C)C)cc2c(c1O)C1(C(=O)O)CCCC(C)(C)C1CC2 (centres unmarked) [12-O-Methylcarnosic acid]	5%	11
C=C1C2CC3(C1O)C1CC4C5(C)CCC(O)C4(C1N(CC)C5)C3CC2O (centres unmarked) [12‐Epinapelline]	0%	9
CCc1ccc(O)c2cc3c(nc12)-c1cc2c(c(=O)n1C3)COC(=O)[C@]2(O)CC [12‐Ethyl‐9‐hydroxycamptothecin]	16%	27
COc1ccc2c(C)c3[n+](cc2c1OC)CCc1cc2c(cc1-3)OCO2.[Cl-] [13‐Methylberberine (chloride)]	0%	0
C=C1CC[C@@H]2[C@](C)(CO)[C@H](O)CC[C@]2(C)[C@@H]1/C=C/C1=CCOC1=O [14-Deoxy-11,12-didehydroandrographolide]	0%	6
C/C=C1/CN2[C@H]3Cc4c([nH]c5ccccc45)[C@]2(O)C[C@@H]1[C@@]3(CO)C(=O)OC [16‐Epivoacarpine]	7%	2
C/C1=C\[C@@H]2[C@H](C/C=C(/CO)[C@@H](O)[C@@H]3[C@@H](O)[C@@H](C)C[C@]3(O)C1=O)C2(C)C [17-Hydroxyisolathyrol]	13%	29
CC1(C)[C@@H](O)CC[C@]2(C)[C@H]3C(=O)C=C4[C@@H]5C[C@@](C)(C(=O)O)CC[C@]5(C)CC[C@@]4(C)[C@]3(C)CC[C@@H]12 [18β-Glycyrrhetinic acid]	15% and 6%	–
CC(C)=CCC[C@@](C)(O)[C@H]1CC[C@]2(C)[C@@H]1[C@H](O)C[C@@H]1[C@@]3(C)CC[C@H](O)C(C)(C)[C@@H]3[C@@H](O[C@@H]3O[C@H](CO)[C@@H](O)[C@H](O)[C@H]3O[C@@H]3O[C@@H](C)[C@H](O)[C@@H](O)[C@H]3O)C[C@]12C [20(R)-Ginsenoside Rg2]	0%	8

Source: paper PMC11855827, “High-Throughput Screening of Five Compound Libraries for Anthelmintic Activity and Toxicity Leads to the Discovery of Two Flavonoid Compounds” (International Journal of Molecular Sciences, 2025)
